# From patent publication US9833497B2, “Human originated EGF domain proteins and use of the same” (CHENGDU SOURCEBIO LIMITED-LIABILITY COMPANY, priority 2013, dated 2017)
# Columns and labels:
# Assay type in all cases: cell-based
# [1] = tested on: Serratia marcescens; assay: MIC against Gram-negative bacteria: Serratia marcescens; conditions: for MIC against S. marcescens / MIC (μg/mL) S. marcescens: Serratia marcescens
# In short: (§1)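 The recombinant human-originated EGF domain proteins were serially diluted two-fold against bacteria at 5×10^5 CFU/mL in LB medium. After shaken incubation at 37° C, the lowest concentration with no bacterial growth was recorded as the MIC.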
# [2] = tested on: Proteus mirabilis; assay: MIC against Gram-negative bacteria: Proteus mirabilis; conditions: for MIC against P. mirabilis / MIC (μg/mL) P. mirabilis: Proteus mirabilis
# In short: as §1
# [3] = tested on: Aeromonas hydrophila; assay: MIC against Gram-negative bacteria: Aeromonas hydrophila; conditions: for MIC against A. hydrophila / MIC (μg/mL) A. hydrophila: Aeromonas hydrophila
# In short: as §1
# [4] = tested on: Citrobacter diversus; assay: MIC against Gram-negative bacteria: Citrobacter diversus; conditions: for MIC against C. diversus / MIC (μg/mL) C. diversus: Citrobacter diversus
# In short: as §1
# [5] = tested on: Enterobacter cloacae; assay: MIC against Gram-negative bacteria: Enterobacter cloacae; conditions: for MIC against E. cloacae / MIC (μg/mL) E. cloacae: Enterobacter cloacae
# In short: as §1
# [6] = tested on: Proteus vulgaris; assay: MIC against Gram-negative bacteria: Proteus vulgaris; conditions: for MIC against P. vulgaris / MIC (μg/mL) P. vulgaris: Proteus vulgaris
# In short: as §1
# [7] = tested on: E. coli DH5α; assay: Antibacterial activity: MIC and growth curve against E. coli DH5α in 96-well plate; conditions: minimal inhibitory concentration against E. coli DH5α; 96-well plate, 5×10^5 CFU/mL, 37° C., judged after 8 h
# In short: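 MIC taken as lowest protein level with no bacterial growth, tracked by A600 every 30 min during 37 °C, 175 rpm culture. Two-fold protein series 50-12.5 μg/mL final, triplicate wells, against 5×10^5 CFU/mL of LB-washed mid-log cells.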
# [8] = tested on: Pseudomonas aeruginosa; assay: MIC against Gram-negative bacteria: Pseudomonas aeruginosa; conditions: for MIC against P. aeruginosa / MIC (μg/mL) P. aeruginosa: Pseudomonas aeruginosa
# In short: as §1
# [9] = tested on: Moraxella catarrhalis; assay: MIC against Gram-negative bacteria: Moraxella catarrhalis; conditions: for MIC against M. catarrhalis / MIC (μg/mL) M. catarrhalis: Moraxella catarrhalis
# In short: as §1
# [10] = tested on: Klebsiella pneumonia; assay: MIC against Gram-negative bacteria: Klebsiella pneumonia; conditions: for MIC against K. pneumonia / MIC (μg/mL) K. pneumonia: Klebsiella pneumonia
# In short: as §1
# [11] = tested on: E. coli BL21; assay: MIC against Gram-negative bacteria: E. coli BL21
# In short: as §1
# [12] = 5×10^5 CFU/mL, 10 h cultivation at 37° C.
# [13] = 96-well plate, 5×10^5 CFU/mL, 37° C., 10 h
# [14] = E. coli BL21, 96-well plate, 5×10^5 CFU/mL, 37° C., 10 h
substance,measurement,setting,value
PRT1406 (EADCIDPGCSNHGVCIHGECHCSPGWGGSNCE; listed as Homo sapiens),MIC against S. marcescens,[1]; [12],50 µg/mL
same,MIC against P. mirabilis,[2]; [12],12.5 µg/mL
same,MIC against A. hydrophila,[3]; [12],50 µg/mL
same,MIC against C. diversus,[4]; [12],12.5 µg/mL
same,MIC against E. cloacae,[5]; [12],25 µg/mL
same,MIC against P. vulgaris,[6]; [12],50 µg/mL
same,MIC,[7],25 µg/mL
same,MIC against P. aeruginosa,[8]; [12],25 µg/mL
same,MIC against M. catarrhalis,[9]; [12],50 µg/mL
same,MIC against K. pneumonia,[10]; [12],12.5 µg/mL
same,MIC against E. coli BL21,"[11]; E. coli BL21, 5×10^5 CFU/mL, 10 h cultivation at 37° C.",50 µg/mL
PRT1205 (EHDECITNQHNCDENALCFNTVGGHNCVCKPGYTGNGTTCK; listed as Homo sapiens),MIC against S. marcescens,[1]; [13],25 µg/mL
same,MIC against P. mirabilis,[2]; [13],50 µg/mL
same,MIC against A. hydrophila,[3]; [13],50 µg/mL
same,MIC against C. diversus,[4]; [13],12.5 µg/mL
same,MIC against E. cloacae,[5]; [13],12.5 µg/mL
same,MIC against P. vulgaris,[6]; [13],12.5 µg/mL
same,MIC,[7],25 µg/mL
same,MIC against P. aeruginosa,[8]; [13],50 µg/mL
same,MIC against M. catarrhalis,[9]; [13],25 µg/mL
same,MIC against K. pneumonia,[10]; [13],25 µg/mL
same,MIC against E. coli BL21,[11]; [14],12.5 µg/mL
PRT130 (ITDRCLPSYCEHGGECSQSWDTFSCDCLGTGYTGETCH; listed as Homo sapiens),MIC (μg/mL) S. marcescens,[1]; [13],12.5 µg/mL
same,MIC (μg/mL) P. mirabilis,[2]; [13],12.5 µg/mL
same,MIC (μg/mL) A. hydrophila,[3]; [13],25 µg/mL
same,MIC (μg/mL) C. diversus,[4]; [13],50 µg/mL
same,MIC (μg/mL) E. cloacae,[5]; [13],12.5 µg/mL
same,MIC (μg/mL) P. vulgaris,[6]; [13],50 µg/mL
same,MIC,[7],12.5 µg/mL
same,MIC (μg/mL) P. aeruginosa,[8]; [13],12.5 µg/mL
same,MIC (μg/mL) M. catarrhalis,[9]; [13],25 µg/mL
same,MIC (μg/mL) K. pneumonia,[10]; [13],25 µg/mL
same,MIC (μg/mL) E. coli BL21,[11]; [14],25 µg/mL
PRT67 (EIDLCYSDPCGANGRCRSREGGYTCECFEDFTGEHCE; listed as Homo sapiens),MIC (μg/mL) S. marcescens,[1]; [13],50 µg/mL
same,MIC (μg/mL) P. mirabilis,[2]; [13],50 µg/mL
same,MIC (μg/mL) A. hydrophila,[3]; [13],25 µg/mL
same,MIC (μg/mL) C. diversus,[4]; [13],12.5 µg/mL
same,MIC (μg/mL) E. cloacae,[5]; [13],50 µg/mL
same,MIC (μg/mL) P. vulgaris,[6]; [13],12.5 µg/mL
same,MIC,[7],12.5 µg/mL
same,MIC (μg/mL) P. aeruginosa,[8]; [13],12.5 µg/mL
same,MIC (μg/mL) M. catarrhalis,[9]; [13],25 µg/mL
same,MIC (μg/mL) K. pneumonia,[10]; [13],25 µg/mL
same,MIC (μg/mL) E. coli BL21,[11]; [14],50 µg/mL
PRT692 (DVDECATGGRCQHGECANTRGGYTCVCPDGFLLDSSRSSCI; listed as Homo sapiens),MIC S. marcescens,[1]; [13],50 µg/mL
same,MIC P. mirabilis,[2]; [13],12.5 µg/mL
same,MIC A. hydrophila,[3]; [13],12.5 µg/mL
same,MIC C. diversus,[4]; [13],50 µg/mL
same,MIC E. cloacae,[5]; [13],25 µg/mL
same,MIC P. vulgaris,[6]; [13],25 µg/mL
same,MIC,[7],50 µg/mL
same,MIC P. aeruginosa,[8]; [13],12.5 µg/mL
same,MIC M. catarrhalis,[9]; [13],25 µg/mL
same,MIC K. pneumonia,[10]; [13],50 µg/mL
same,MIC E. coli BL21,[11]; [13],25 µg/mL
PRT59 (PCTVGDASACLTCAPDNRTRCGTCNTGYMLSQGLCK; listed as Homo sapiens),MIC (μg/mL) S. marcescens,[1]; [13],12.5 µg/mL
same,MIC (μg/mL) P. mirabilis,[2]; [13],25 µg/mL
same,MIC (μg/mL) A. hydrophila,[3]; [13],12.5 µg/mL
same,MIC (μg/mL) C. diversus,[4]; [13],25 µg/mL
same,MIC (μg/mL) E. cloacae,[5]; [13],25 µg/mL
same,MIC (μg/mL) P. vulgaris,[6]; [13],12.5 µg/mL
same,MIC,[7],25 µg/mL
same,MIC (μg/mL) P. aeruginosa,[8]; [13],25 µg/mL
same,MIC (μg/mL) M. catarrhalis,[9]; [13],12.5 µg/mL
same,MIC (μg/mL) K. pneumonia,[10]; [13],50 µg/mL
same,MIC (μg/mL) E. coli BL21,[11]; [14],12.5 µg/mL
PRT998 (VPLCAPNLCQPKQICKDQKDKANCLCPDGSPGCA; listed as Homo sapiens),MIC,"[1]; S. marcescens, 10 h cultivation at 37° C.",25 µg/mL
same,MIC,"[2]; P. mirabilis, 10 h cultivation at 37° C.",25 µg/mL
same,MIC,"[3]; A. hydrophila, 10 h cultivation at 37° C.",50 µg/mL
same,MIC,"[4]; C. diversus, 10 h cultivation at 37° C.",25 µg/mL
same,MIC,"[5]; E. cloacae, 10 h cultivation at 37° C.",12.5 µg/mL
same,MIC,"[6]; P. vulgaris, 10 h cultivation at 37° C.",50 µg/mL
same,MIC,[7],12.5 µg/mL
same,MIC,"[8]; P. aeruginosa, 10 h cultivation at 37° C.",12.5 µg/mL
same,MIC,"[9]; M. catarrhalis, 10 h cultivation at 37° C.",12.5 µg/mL
same,MIC,"[10]; K. pneumonia, 10 h cultivation at 37° C.",50 µg/mL
same,MIC,"[11]; E. coli BL21, 10 h cultivation at 37° C.",50 µg/mL
